{
  "source": "ChEMBL document CHEMBL4418265",
  "about": "“Piperidinylpyrazolopyridine derivatives” (2016)",
  "system": "Cynomolgus monkey",
  "assay": "Increase in HDL-C level in cynomolgus monkey plasma at 10 mg/kg, po administered as single dose measured after 1 or 7 days by HPLC method",
  "format": "functional, Macaca fascicularis",
  "data": [
    {"smiles": "O=C1CC(O)(C(F)(F)F)c2c(C3CCN(c4ccc(OC(F)F)cc4)CC3)n[nH]c2N1", "note": "(single isomer, unassigned)", "values": [
      {"measurement": "Activity", "value": 644, "unit": "%"}
    ]}
  ]
}
